Reference: patent US20210255193A1, “LYSINE REACTIVE PROBES AND USES THEREOF” (The Scripps Research Institute, priority 2017, published 2021)

Legend:
Experiment in all cases: competitive isoTOP-ABPP
Assay type in all cases: binding
[1] = molecular target: T1, LRRC20 Leucine-rich repeat-containing protein 20 (Homo sapiens, UniProt Q8TCA0); details: for isoTOP-ABPP ratio (R) at liganded lysine Q8TCA0_K43: 50 uM, in vitro, sol, 231
T1 construct: isoTOP-ABPP experiments performed in cell lysates (in vitro); endogenous in cells; host or cells: soluble proteome of human cancer cell lines (MDA-MB-231; Ramos and Jurkat also prepared)
T1 sequence (Q8TCA0 1-184): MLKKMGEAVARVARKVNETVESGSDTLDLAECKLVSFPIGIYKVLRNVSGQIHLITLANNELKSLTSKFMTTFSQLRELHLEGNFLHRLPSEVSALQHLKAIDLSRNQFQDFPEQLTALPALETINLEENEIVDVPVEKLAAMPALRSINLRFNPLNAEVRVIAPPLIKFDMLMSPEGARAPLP
Outline: (§1)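 Cell lysate (0.5 ml) was pre-treated with fragment, 50 μM for activated esters or 100 μM for guanidinylating agents, versus DMSO, then labeled 1 h at ambient temperature with 0.1 mM STP-alkyne. Light/heavy TEV tags attached by CuAAC; R = DMSO/compound MS1 peak-area ratio, median per lysine.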

[2] = molecular target: T2, SLC25A5 ADP/ATP translocase 2 (Homo sapiens, UniProt P05141); details: for isoTOP-ABPP ratio (R) at liganded lysine P05141_K23: 50 uM, in vitro, sol, 231
T2 construct: isoTOP-ABPP experiments performed in cell lysates (in vitro); endogenous in cells; host or cells: MDA-MB-231 soluble lysate
T2 sequence (P05141 1-298): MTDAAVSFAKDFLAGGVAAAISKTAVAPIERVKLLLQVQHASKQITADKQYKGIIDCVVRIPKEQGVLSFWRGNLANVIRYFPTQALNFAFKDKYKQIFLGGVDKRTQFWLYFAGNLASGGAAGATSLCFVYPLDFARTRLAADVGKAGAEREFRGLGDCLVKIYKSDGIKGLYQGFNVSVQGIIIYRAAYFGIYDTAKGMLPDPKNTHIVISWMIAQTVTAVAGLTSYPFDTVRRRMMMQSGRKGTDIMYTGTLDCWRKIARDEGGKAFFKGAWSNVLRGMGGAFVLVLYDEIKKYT
Outline: as §1

[3] = molecular target: T3, DNMT1 DNA (cytosine-5)-methyltransferase 1 (Homo sapiens, UniProt P26358); details: for isoTOP-ABPP ratio (R) at liganded lysine P26358_K45: 50 uM, in vitro, sol, 231
T3 construct: isoTOP-ABPP experiments performed in cell lysates (in vitro); endogenous in cells; host or cells: soluble proteome of human cancer cell lines (MDA-MB-231; Ramos and Jurkat also prepared)
Outline: as §1

SPAST Spastin = molecular target: T4, SPAST Spastin (Homo sapiens, UniProt Q9UBP0); details: for isoTOP-ABPP ratio (R) at liganded lysine Q9UBP0_K180: 50 uM, in vitro, sol, 231
T4 construct: endogenous in cells; host or cells: MDA-MB-231 lysate
T4 sequence (Q9UBP0 1-616): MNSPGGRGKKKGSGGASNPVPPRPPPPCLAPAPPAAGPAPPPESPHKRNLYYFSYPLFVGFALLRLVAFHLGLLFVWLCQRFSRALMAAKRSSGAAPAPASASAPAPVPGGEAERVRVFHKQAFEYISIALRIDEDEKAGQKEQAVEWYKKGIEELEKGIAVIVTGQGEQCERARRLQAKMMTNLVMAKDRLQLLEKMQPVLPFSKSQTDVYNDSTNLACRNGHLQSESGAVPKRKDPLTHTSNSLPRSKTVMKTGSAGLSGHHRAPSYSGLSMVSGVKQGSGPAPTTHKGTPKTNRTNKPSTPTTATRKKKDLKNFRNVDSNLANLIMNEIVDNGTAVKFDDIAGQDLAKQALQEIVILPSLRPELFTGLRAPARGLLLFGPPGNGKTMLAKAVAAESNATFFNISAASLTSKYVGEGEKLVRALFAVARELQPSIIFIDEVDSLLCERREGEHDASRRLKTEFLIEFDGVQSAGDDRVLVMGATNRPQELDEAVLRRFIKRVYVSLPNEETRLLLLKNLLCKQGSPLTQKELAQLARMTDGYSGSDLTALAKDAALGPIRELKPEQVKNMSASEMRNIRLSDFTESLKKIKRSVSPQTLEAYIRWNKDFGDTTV
Outline: as §1

T3 sequence (P26358 whole entry): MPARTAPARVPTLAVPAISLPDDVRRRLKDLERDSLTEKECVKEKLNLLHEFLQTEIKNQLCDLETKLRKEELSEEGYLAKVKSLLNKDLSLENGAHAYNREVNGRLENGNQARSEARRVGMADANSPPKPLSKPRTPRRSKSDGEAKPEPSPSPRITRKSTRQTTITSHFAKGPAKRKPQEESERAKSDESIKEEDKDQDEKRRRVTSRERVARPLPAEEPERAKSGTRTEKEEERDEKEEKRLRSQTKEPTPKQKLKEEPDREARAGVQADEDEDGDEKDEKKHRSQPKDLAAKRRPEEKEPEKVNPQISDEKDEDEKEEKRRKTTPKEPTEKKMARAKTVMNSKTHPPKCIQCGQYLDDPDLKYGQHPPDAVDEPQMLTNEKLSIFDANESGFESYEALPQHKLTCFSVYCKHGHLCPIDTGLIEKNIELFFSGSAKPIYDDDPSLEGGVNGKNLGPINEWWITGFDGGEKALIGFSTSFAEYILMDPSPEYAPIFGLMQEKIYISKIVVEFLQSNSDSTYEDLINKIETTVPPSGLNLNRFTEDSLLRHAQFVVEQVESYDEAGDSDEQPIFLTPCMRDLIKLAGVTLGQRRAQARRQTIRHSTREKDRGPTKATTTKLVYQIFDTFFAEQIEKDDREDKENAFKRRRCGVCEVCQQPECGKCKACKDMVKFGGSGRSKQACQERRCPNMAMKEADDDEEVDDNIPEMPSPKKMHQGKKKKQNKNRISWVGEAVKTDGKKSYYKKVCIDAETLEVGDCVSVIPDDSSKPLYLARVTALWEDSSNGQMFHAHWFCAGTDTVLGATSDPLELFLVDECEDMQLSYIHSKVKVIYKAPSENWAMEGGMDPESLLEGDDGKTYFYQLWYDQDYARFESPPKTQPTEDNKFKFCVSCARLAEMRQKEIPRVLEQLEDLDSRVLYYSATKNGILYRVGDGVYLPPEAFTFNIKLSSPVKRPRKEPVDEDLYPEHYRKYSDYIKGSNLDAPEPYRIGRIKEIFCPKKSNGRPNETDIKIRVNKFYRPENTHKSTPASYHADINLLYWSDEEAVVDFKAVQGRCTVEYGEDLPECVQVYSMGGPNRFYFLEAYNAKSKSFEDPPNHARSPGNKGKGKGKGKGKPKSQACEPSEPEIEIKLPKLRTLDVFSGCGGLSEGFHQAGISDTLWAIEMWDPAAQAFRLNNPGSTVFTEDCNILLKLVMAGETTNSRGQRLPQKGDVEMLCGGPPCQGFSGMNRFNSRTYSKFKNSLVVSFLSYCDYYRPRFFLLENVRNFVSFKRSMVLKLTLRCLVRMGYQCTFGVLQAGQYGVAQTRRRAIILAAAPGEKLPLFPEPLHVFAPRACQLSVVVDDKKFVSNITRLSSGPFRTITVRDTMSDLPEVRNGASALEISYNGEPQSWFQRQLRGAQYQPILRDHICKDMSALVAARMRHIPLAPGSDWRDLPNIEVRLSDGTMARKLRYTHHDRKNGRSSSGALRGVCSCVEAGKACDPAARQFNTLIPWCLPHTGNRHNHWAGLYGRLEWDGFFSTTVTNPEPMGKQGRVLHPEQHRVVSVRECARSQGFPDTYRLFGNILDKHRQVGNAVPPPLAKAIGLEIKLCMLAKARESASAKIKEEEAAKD

Row | SMILES | isoTOP-ABPP ratio (R) at liganded lysine Q8TCA0_K43 [1] | isoTOP-ABPP ratio (R) at liganded lysine P05141_K23 [2] | isoTOP-ABPP ratio (R) at liganded lysine Q9UBP0_K180 (SPAST Spastin) | also measured
1 | O=C(Oc1ccc([N+](=O)[O-])cc1[N+](=O)[O-])c1ccc2ccccc2n1 [fragment 35, 2,4-Dinitrophenyl quinoline-2-carboxylate] | 1.0 | 1.1 |  | 
2 | O=C(CCc1coc2cc(F)ccc2c1=O)Oc1ccc([N+](=O)[O-])cc1[N+](=O)[O-] [fragment 36, 2,4-Dinitrophenyl 3-(7-fluoro-4-oxo-4H-chromen-3-yl)propanoate] | 1.1 | 1.1 |  | isoTOP-ABPP ratio (R) at liganded lysine P26358_K45 [3]: 0.8
3 | O=C(Oc1ccc([N+](=O)[O-])cc1[N+](=O)[O-])c1ccc(-c2ccccc2)cc1 [fragment 37, 2,4-Dinitrophenyl [1,1′-biphenyl]-4-carboxylate] |  | 1.2 | 1.1 | isoTOP-ABPP ratio (R) at liganded lysine P26358_K45 [3]: 0.7
4 | O=C(CC12CC3CC(CC(C3)C1)C2)Oc1ccc([N+](=O)[O-])cc1[N+](=O)[O-] [fragment 38, 2,4-Dinitrophenyl 2-(adamantan-1-yl)acetate] |  | 1.1 | 2.1 | 
5 | O=C(Oc1ccc([N+](=O)[O-])cc1[N+](=O)[O-])c1ccccc1Nc1cccc(C(F)(F)F)c1 [fragment 40, 2,4-Dinitrophenyl 2-((3-(trifluoromethyl)phenyl)amino)benzoate] |  | 0.8 |  | 
6 | CC(C)(C)OC(=O)NCCCC(=O)Oc1ccc([N+](=O)[O-])cc1[N+](=O)[O-] [fragment 41, 2,4-Dinitrophenyl 4-((tert-butoxycarbonyl)amino)butanoate] |  | 1.0 | 1.4 | 
7 | O=C(Oc1ccc([N+](=O)[O-])cc1[N+](=O)[O-])C(c1ccccc1)(c1ccccc1)c1ccccc1 [fragment 42, 2,4-Dinitrophenyl 2,2,2-triphenylacetate] | 1.3 | 1.1 | 1.0 | 
8 | CC(=O)Oc1ccc([N+](=O)[O-])cc1[N+](=O)[O-] [fragment 43, 2,4-Dinitrophenyl acetate] | 1.2 | 0.9 | 2.7 | 
9 | N#Cc1ccc(C(=O)Oc2ccc([N+](=O)[O-])cc2[N+](=O)[O-])cc1 [fragment 44, 2,4-Dinitrophenyl 4-cyanobenzoate] |  |  |  | isoTOP-ABPP ratio, lysine P26358_K45 ([3]; 50 uM_231_sol_in vitro): 0.7; isoTOP-ABPP ratio, lysine Q8TCA0_K43 ([1]; 50 uM_231_sol_in vitro): 1.1; isoTOP-ABPP ratio, lysine P05141_K23 ([2]; 50 uM_231_sol_in vitro): 1.1
10 | O=C(Oc1c(F)c(F)c(C(F)(F)F)c(F)c1F)c1cc(C(F)(F)F)cc(C(F)(F)F)c1 [fragment 47, 2,3,5,6-Tetrafluoro-4-(trifluoromethyl)phenyl 3,5-bis(trifluoromethyl)benzoate] |  |  |  | isoTOP-ABPP ratio, lysine P05141_K23 ([2]; 50 uM_231_sol_in vitro): 1.8
11 | O=C(Oc1c(F)c(F)cc(F)c1F)c1cc(C(F)(F)F)cc(C(F)(F)F)c1 [fragment 48, 2,3,5,6-Tetrafluorophenyl 3,5-bis(trifluoromethyl)benzoate] |  |  |  | isoTOP-ABPP ratio, lysine P26358_K45 ([3]; 50 uM_231_sol_in vitro): 1.1; isoTOP-ABPP ratio, lysine P05141_K23 ([2]; 50 uM_231_sol_in vitro): 1.2
12 | COC(=O)NC(=NC(=O)OCC1c2ccccc2-c2ccccc21)n1cccn1 [fragment 49, N-Methoxycarbonyl-N′-9-fluorenylmethoxycarbonyl-pyrazole-1-carboxamidine] |  |  |  | isoTOP-ABPP ratio, lysine P26358_K45 ([3]; 100 uM_231_sol_in vitro): 1.3; isoTOP-ABPP ratio, lysine Q8TCA0_K43 ([1]; 100 uM_231_sol_in vitro): 14.0
13 | CC(C)(C)OC(=O)N=C(NC(=O)OC(C)(C)C)n1cccn1 [fragment 50, reference compound] |  |  |  | isoTOP-ABPP ratio, lysine Q9UBP0_K180 (SPAST Spastin; 100 uM_231_sol_in vitro): 2.0; isoTOP-ABPP ratio, lysine Q8TCA0_K43 ([1]; 100 uM_231_sol_in vitro): 1.3; isoTOP-ABPP ratio, lysine P05141_K23 ([2]; 100 uM_231_sol_in vitro): 12.6
